This test concerns the target T1, human αVβ6 (Homo sapiens, UniProt P06756+P18564).
T1 construct: purchased R & D systems 3817-AV
The test is described as follows: human αVβ6 HTRF binding assay. The following applies: recombinant human αVβ6 integrin, FITC-conjugated fibronectin. An outline of the steps:
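Biotinylated recombinant αVβ6 (1.25 nM final) incubated with FITC-fibronectin (5 nM) 1 h at RT, then streptavidin-terbium (0.625 nM) added and incubated overnight at RT in the dark before HTRF read. Buffer: 20 mM Tris pH 7.4, 1 mM MgCl2, 1 mM MnCl2, 0.01% Tween 20, 0.01% BSA.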

Each structure is given as a SMILES string.

T1 sequence (P06756 31-992 limits assumed): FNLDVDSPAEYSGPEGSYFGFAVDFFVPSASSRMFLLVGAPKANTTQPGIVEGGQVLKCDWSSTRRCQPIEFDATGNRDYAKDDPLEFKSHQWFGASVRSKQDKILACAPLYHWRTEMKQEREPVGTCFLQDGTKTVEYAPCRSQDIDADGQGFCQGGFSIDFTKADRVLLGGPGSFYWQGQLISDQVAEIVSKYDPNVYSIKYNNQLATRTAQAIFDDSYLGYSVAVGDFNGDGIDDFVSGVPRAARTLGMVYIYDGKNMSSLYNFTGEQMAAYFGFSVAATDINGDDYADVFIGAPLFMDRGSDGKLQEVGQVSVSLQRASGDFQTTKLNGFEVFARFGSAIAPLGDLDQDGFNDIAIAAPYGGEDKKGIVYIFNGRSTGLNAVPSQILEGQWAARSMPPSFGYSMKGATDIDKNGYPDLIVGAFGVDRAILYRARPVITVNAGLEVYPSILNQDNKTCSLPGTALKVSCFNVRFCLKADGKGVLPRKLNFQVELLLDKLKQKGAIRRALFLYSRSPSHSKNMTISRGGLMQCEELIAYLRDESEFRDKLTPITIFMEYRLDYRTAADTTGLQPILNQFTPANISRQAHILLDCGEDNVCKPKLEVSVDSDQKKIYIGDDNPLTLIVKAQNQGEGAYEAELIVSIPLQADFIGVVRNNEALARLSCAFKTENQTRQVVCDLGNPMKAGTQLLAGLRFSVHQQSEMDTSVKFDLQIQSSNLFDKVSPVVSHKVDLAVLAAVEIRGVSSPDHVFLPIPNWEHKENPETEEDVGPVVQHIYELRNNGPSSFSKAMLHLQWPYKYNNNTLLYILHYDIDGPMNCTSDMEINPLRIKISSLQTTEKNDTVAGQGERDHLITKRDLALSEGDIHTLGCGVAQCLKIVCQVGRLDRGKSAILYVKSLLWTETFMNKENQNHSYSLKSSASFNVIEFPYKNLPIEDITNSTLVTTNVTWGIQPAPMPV
T1 sequence (P18564 22-707 limits assumed): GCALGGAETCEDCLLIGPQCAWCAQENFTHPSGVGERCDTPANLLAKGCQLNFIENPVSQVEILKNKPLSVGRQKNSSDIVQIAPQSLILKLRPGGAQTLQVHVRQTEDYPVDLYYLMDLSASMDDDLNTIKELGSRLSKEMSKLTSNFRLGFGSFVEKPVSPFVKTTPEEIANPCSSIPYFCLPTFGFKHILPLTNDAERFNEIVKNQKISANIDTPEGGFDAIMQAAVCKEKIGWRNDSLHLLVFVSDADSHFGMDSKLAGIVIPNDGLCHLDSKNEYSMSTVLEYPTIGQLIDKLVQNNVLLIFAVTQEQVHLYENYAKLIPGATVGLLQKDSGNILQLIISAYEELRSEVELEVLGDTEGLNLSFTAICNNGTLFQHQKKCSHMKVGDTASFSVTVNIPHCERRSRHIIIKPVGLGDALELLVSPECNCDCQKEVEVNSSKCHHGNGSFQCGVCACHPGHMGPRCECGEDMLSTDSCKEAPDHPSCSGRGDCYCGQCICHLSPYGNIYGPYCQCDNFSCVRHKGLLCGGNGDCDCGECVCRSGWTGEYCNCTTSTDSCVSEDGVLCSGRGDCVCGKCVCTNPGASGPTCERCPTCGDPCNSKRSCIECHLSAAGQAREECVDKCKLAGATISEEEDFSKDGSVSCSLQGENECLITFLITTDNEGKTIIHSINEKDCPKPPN

As a reminder, the IC50 is the concentration that gives 50% inhibition. In the case of `COc1ccc(C(CC(=O)O)c2nc(CCCC3CCc4cccnc4N3)cs2)cc1F` (single isomer, unassigned) [Example 160, 3-(3-fluoro-4-methoxyphenyl)-3-(4-(3-(1,2,3,4-tetrahydro-1,8-naphthyridin-2-yl)propyl)thiazol-2-yl)propanoic acid], the IC50 came out at 195 nM.
For `COc1ccc(C(CC(=O)O)c2nc(CCCC3CCc4cccnc4N3)cs2)cc1F` (single isomer, unassigned) [Example 161, 3-(3-fluoro-4-methoxyphenyl)-3-(4-(3-(1,2,3,4-tetrahydro-1,8-naphthyridin-2-yl)propyl)thiazol-2-yl)propanoic acid], the IC50 was 12 nM.
With `Cc1cc(C)n(C(CC(=O)O)c2nc(CCCc3ccc4c(n3)NCCC4)cs2)n1` (single isomer, unassigned) [Example 162, 3-(3,5-dimethyl-1H-pyrazol-1-yl)-3-(4-(3-(5,6,7,8-tetrahydro-1,8-naphthyridin-2-yl)propyl)thiazol-2-yl)propanoic acid] the figure was 71 nM; with `Cc1cc(C)n(C(CC(=O)O)c2nc(CCCc3ccc4c(n3)NCCC4)cs2)n1` (single isomer, unassigned) [Example 163, 3-(3,5-dimethyl-1H-pyrazol-1-yl)-3-(4-(3-(5,6,7,8-tetrahydro-1,8-naphthyridin-2-yl)propyl)thiazol-2-yl)propanoic acid], 220 nM; with `COc1ccc(C(CC(=O)O)c2ncc(CCCCc3ccc4c(n3)NCCC4)n2C)cn1` (single isomer, unassigned) [Example 164, 3-(6-methoxypyridin-3-yl)-3-(1-methyl-5-(4-(5,6,7,8-tetrahydro-1,8-naphthyridin-2-yl)butyl)-1H-imidazol-2-yl)propanoic acid], 460 nM.
Consider `COc1ccc(C(CC(=O)O)c2ncc(CCCCc3ccc4c(n3)NCCC4)n2C)cn1` (single isomer, unassigned) [Example 165, 3-(6-methoxypyridin-3-yl)-3-(1-methyl-5-(4-(5,6,7,8-tetrahydro-1,8-naphthyridin-2-yl)butyl)-1H-imidazol-2-yl)propanoic acid], for which the IC50 amounted to 27 nM.
With `COc1ccc(C(CC(=O)O)c2ncc(CCCCc3ccc4c(n3)NCCC4)n2C)cc1F` (single isomer, unassigned) [Example 166, 3-(3-fluoro-4-methoxyphenyl)-3-(1-methyl-5-(4-(5,6,7,8-tetrahydro-1,8-naphthyridin-2-yl)butyl)-1H-imidazol-2-yl)propanoic acid] the figure was 280 nM; with `COc1ccc(C(CC(=O)O)c2ncc(CCCCc3ccc4c(n3)NCCC4)n2C)cc1F` (single isomer, unassigned) [Example 167, 3-(3-fluoro-4-methoxyphenyl)-3-(1-methyl-5-(4-(5,6,7,8-tetrahydro-1,8-naphthyridin-2-yl)butyl)-1H-imidazol-2-yl)propanoic acid], 27 nM.
For the molecule `COc1ccc(C(CC(=O)O)c2nc(CCCCc3ccc4c(n3)NCCC4)cn2C)cc1F` (single isomer, unassigned) [Example 168, 3-(3-fluoro-4-methoxyphenyl)-3-(1-methyl-4-(4-(5,6,7,8-tetrahydro-1,8-naphthyridin-2-yl)butyl)-1H-imidazol-2-yl)propanoic acid], the IC50 stood at 91 nM.
With `COc1ccc(C(CC(=O)O)c2nc(CCCCc3ccc4c(n3)NCCC4)cn2C)cc1F` (single isomer, unassigned) [Example 169, 3-(3-fluoro-4-methoxyphenyl)-3-(1-methyl-4-(4-(5,6,7,8-tetrahydro-1,8-naphthyridin-2-yl)butyl)-1H-imidazol-2-yl)propanoic acid] the figure was 67 nM; with `COc1ccc(C(CC(=O)O)n2ncc(CCCc3ccc4c(n3)NCCC4)n2)cn1` (single isomer, unassigned) [Example 170, 3-(6-methoxypyridin-3-yl)-3-(4-(3-(5,6,7,8-tetrahydro-1,8-naphthyridin-2-yl)propyl)-2H-1,2,3-triazol-2-yl)propanoic acid], 620 nM.
With `COc1ccc(C(CC(=O)O)n2ncc(CCCc3ccc4c(n3)NCCC4)n2)cn1` (single isomer, unassigned) [Example 171, 3-(6-methoxypyridin-3-yl)-3-(4-(3-(5,6,7,8-tetrahydro-1,8-naphthyridin-2-yl)propyl)-2H-1,2,3-triazol-2-yl)propanoic acid] the figure was 27 nM; with `COc1ccc(C(CC(=O)O)n2ncc(CCCc3ccc4c(n3)NCCC4)n2)cc1F` (single isomer, unassigned) [Example 172, 3-(3-fluoro-4-methoxyphenyl)-3-(4-(3-(5,6,7,8-tetrahydro-1,8-naphthyridin-2-yl)propyl)-2H-1,2,3-triazol-2-yl)propanoic acid], 53 nM.
With `COc1ccc(C(CC(=O)O)n2ncc(CCCc3ccc4c(n3)NCCC4)n2)cc1F` (single isomer, unassigned) [Example 173, 3-(3-fluoro-4-methoxyphenyl)-3-(4-(3-(5,6,7,8-tetrahydro-1,8-naphthyridin-2-yl)propyl)-2H-1,2,3-triazol-2-yl)propanoic acid] the figure was 3 nM.
Consider `O=C(O)CC(c1cnc2ccccc2c1)n1ncc(CCCc2ccc3c(n2)NCCC3)n1` (single isomer, unassigned) [Example 174, 3-(quinolin-3-yl)-3-(4-(3-(5,6,7,8-tetrahydro-1,8-naphthyridin-2-yl)propyl)-2H-1,2,3-triazol-2-yl)propanoic acid], for which the IC50 amounted to 170 nM.
Consider `O=C(O)CC(c1cnc2ccccc2c1)n1ncc(CCCc2ccc3c(n2)NCCC3)n1` (single isomer, unassigned) [Example 175, 3-(quinolin-3-yl)-3-(4-(3-(5,6,7,8-tetrahydro-1,8-naphthyridin-2-yl)propyl)-2H-1,2,3-triazol-2-yl)propanoic acid], for which the IC50 amounted to 4.3 nM.
For `COc1ncc(C(CC(=O)O)n2ncc(CCCc3ccc4c(n3)NCCC4)n2)cn1` (single isomer, unassigned) [Example 176, 3-(2-methoxypyrimidin-5-yl)-3-(4-(3-(5,6,7,8-tetrahydro-1,8-naphthyridin-2-yl)propyl)-2H-1,2,3-triazol-2-yl)propanoic acid], the IC50 is 43 nM.
With `COc1ncc(C(CC(=O)O)n2ncc(CCCc3ccc4c(n3)NCCC4)n2)cn1` (single isomer, unassigned) [Example 177, 3-(2-methoxypyrimidin-5-yl)-3-(4-(3-(5,6,7,8-tetrahydro-1,8-naphthyridin-2-yl)propyl)-2H-1,2,3-triazol-2-yl)propanoic acid] the figure was 315 nM; with `COc1ccc(C(CC(=O)O)c2nc(CCCc3ccc4c(n3)NCCC4)co2)cc1F` (single isomer, unassigned) [Example 179, 3-(3-fluoro-4-methoxyphenyl)-3-(4-(3-(5,6,7,8-tetrahydro-1,8-naphthyridin-2-yl)propyl)oxazol-2-yl)propanoic acid], 66 nM.
Turning to `COc1ccc(C(CC(=O)O)c2nc(CCCCc3ccc4c(n3)NCCC4)c(C)o2)cc1F` (single isomer, unassigned) [Example 180, 3-(3-fluoro-4-methoxyphenyl)-3-(5-methyl-4-(4-(5,6,7,8-tetrahydro-1,8-naphthyridin-2-yl)butyl)oxazol-2-yl)propanoic acid], the IC50 came to 250 nM.
